Measured values taken from patent publication US8846570B2, “Herbicidal compositions comprising 4-amino-3-chloro-5-fluoro-6-(4-chloro-2-fluoro-3-methoxyphenyl)pyridine-2-carboxylic acid or a derivative thereof and microtubule inhibiting herbicides” (Dow AgroSciences LLC, priority 2012, dated 2014).
Where two headings read alike, the source gives them in different places.

Experiments:
Assay type in all cases: in vivo
[1] = test system: Ipomoea hederacea (L.) Jacq. (IPOHE); test: Pre-emergence soil-applied, greenhouse: visual weed control; settings: Propyzamide 1120 g ai/ha alone; soil-applied pre-emergence; 33 DAA
Text: (§1) Seeds or nutlets of the desired test plant species were planted in a soil matrix prepared by mixing a loam soil (e.g., 32 percent silt, 23 percent clay, and 45 percent sand, with a pH of about 6.5 and an organic matter content of about 1.9 percent) and calcareous grit in an 80 to 20 ratio. The soil matrix was contained in plastic pots with a volume of 1 quart and a surface area of 83.6 square centimeters (cm^2).
(§2) Forms of compound A were applied on an acid equivalent basis.
(§3) For treatments comprised of formulated compounds, measured amounts of compounds were placed individually in 25 mL glass vials and diluted in a volume of 1.25% (v/v) Agri-Dex® crop oil concentrate (COC) to obtain 12× stock solutions. […] Application solutions were prepared by adding an appropriate amount of each stock solution (e.g., 1 mL) and diluted to the appropriate final concentrations with the addition of 10 mL of an aqueous mixture of 1.25% (v/v) COC so that the final spray solutions contained 1.25% (v/v) COC.
(§4) For treatments comprised of formulated and technical compounds, weighed amounts of the technical materials were placed individually in 25 mL glass vials and dissolved in a volume of 97:3 (v/v) acetone/DMSO to obtain 12× stock solutions, and measured amounts of the formulated compounds were placed individually in 25 mL glass vials and diluted in a volume of 1.5% (v/v) COC or water to obtain 12× stock solutions. […] Application solutions were prepared by adding an appropriate amount of each stock solution (e.g., 1 mL) and diluted to the appropriate final concentrations with the addition of an appropriate amount of an aqueous mixture of 1.5% (v/v) COC so that the final spray solutions contained 1.25% (v/v) COC. As required, additional water and/or 97:3 (v/v) acetone/DMSO was added to individual application solutions so that the final acetone and DMSO concentrations of the application solutions being compared were 8.1% and 0.25%, respectively.
(§5) All stock solutions and applications solutions were visually inspected for compound compatibility prior to application. Spray solutions were applied to the soil with an overhead Mandel track sprayer equipped with a 8002E nozzles calibrated to deliver 187 L/ha over an application area of 0.503 m^2 at a spray height of 18 inches (46 cm) above average pot height. Control pots were sprayed in the same manner with the solvent blank.
The treated and control pots were placed in a greenhouse and top watered as needed. […] The pots were maintained in a greenhouse with an approximate 14 hr photoperiod which was maintained at about 29° C. during the day and 26° C. during the night. Nutrients (Peters® Excel 15-5-15 5-Ca 2-Mg) were applied in the irrigation solution as needed and water was added on a regular basis. Supplemental lighting was provided with overhead metal halide 1000-Watt lamps as necessary. After approximately 4 weeks, the condition of the test plants as compared with that of the untreated plants was determined visually and scored on a scale of 0 to 100 percent where 0 corresponds to no injury or growth inhibition and 100 corresponds to complete kill.
(§6) Colby's equation was used to determine the herbicidal effects expected from the mixtures (Colby, S. R. 1967. Calculation of the synergistic and antagonistic response of herbicide combinations. Weeds 15:20-22.).
(§7) The following equation was used to calculate the expected activity of mixtures containing two active ingredients, A and B: Expected=A+B−(A×B/100)

[2] = test system: Ipomoea hederacea Jacq. (IPOHE); test: Postemergence foliar-applied, direct seeded rice, greenhouse: visual weed control; settings: post-emergence, read-out: Visual Weed Control (%) Obs
Experimental: Seeds or nutlets of the desired test plant species were planted in a soil matrix prepared by mixing a loam or sandy loam soil (e.g., 28.6 percent silt, 18.8 percent clay, and 52.6 percent sand, with a pH of about 5.8 and an organic matter content of about 1.8 percent) and calcareous grit in an 80 to 20 ratio. The soil matrix was contained in plastic pots with a volume of 1 quart and a surface area of 83.6 cm^2. […] The plants were grown for 8-22 days in a greenhouse with an approximate 14 h photoperiod which was maintained at about 29° C. during the day and 26° C. during the night. Nutrients (Peters Excel® 15-5-15 5-Ca 2-Mg and iron chelate) were applied in the irrigation solution as needed and water was added on a regular basis. Supplemental lighting was provided with overhead metal halide 1000-Watt lamps as necessary. The plants were employed for testing when they reached the first through fourth true leaf stage.
as §2
as §3, with “oil concentrated” for “oil concentrate (COC)”, “(v/v) crop oil concentrate” for “(v/v) COC”, “contained 1.25+/−0.05%” for “contained 1.25%”, “(v/v) crop oil concentrate.” for “(v/v) COC.”
As required, additional water and/or 97:3 v/v acetone/DMSO was added to individual application solutions so that the final acetone and DMSO concentrations of the application solutions being compared were 8.1% and 0.25%, respectively.
All stock solutions and applications solutions were visually inspected for compound compatibility prior to application. Spray solutions were applied to the plant material with an overhead Mandel track sprayer equipped with a 8002E nozzles calibrated to deliver 187 L/ha over an application area of 0.503 m^2 at a spray height of 18 to 20 inches (46 to 50 cm) above average plant canopy height. Control plants were sprayed in the same manner with the solvent blank.
The treated plants and control plants were placed in a greenhouse as described above and watered by sub-irrigation to prevent wash-off of the test compounds. After approximately 3 weeks, the condition of the test plants as compared with that of the untreated plants was determined visually and scored on a scale of 0 to 100 percent where 0 corresponds to no injury or growth inhibition and 100 corresponds to complete kill.
as §6, §7

[3] = test system: Echinochloa crus-galli (L.) P. Beauv. (ECHCG); test: Pre-emergence soil-applied, greenhouse: visual weed control
Text: as §1
(§8) Treatments consisted of the benzyl ester of 4-amino-3-chloro-5-fluoro-6-(4-chloro-2-fluoro-3-methoxy-phenyl)pyridine-2-carboxylic acid (compound A) formulated as an SC (suspension concentrate) and various herbicidal components alone and in combination. Forms of compound A were applied on an acid equivalent basis.
(§9) Treatment requirements were calculated based upon the rates being tested, the concentration of active ingredient or acid equivalent in the formulation, and a 12 mL application volume at a rate of 187 L/ha.
as §3, §4, §5
(§10) The treated and control pots were placed in a greenhouse and top watered as needed. When required to ensure good germination and healthy plants, a fungicide treatment and/or other chemical or physical treatment was applied. The pots were maintained in a greenhouse with an approximate 14 hr photoperiod which was maintained at about 29° C. during the day and 26° C. during the night. Nutrients (Peters® Excel 15-5-15 5-Ca 2-Mg) were applied in the irrigation solution as needed and water was added on a regular basis. Supplemental lighting was provided with overhead metal halide 1000-Watt lamps as necessary. After approximately 4 weeks, the condition of the test plants as compared with that of the untreated plants was determined visually and scored on a scale of 0 to 100 percent where 0 corresponds to no injury or growth inhibition and 100 corresponds to complete kill.
(§11) Colby's equation was used to determine the herbicidal effects expected from the mixtures (Colby, S. R. 1967. Calculation of the synergistic and antagonistic response of herbicide combinations. Weeds 15:20-22.). […]

[4] = test system: Brachiaria platyphylla (Groseb.) Nash or Urochloa platyphylla (Nash) R.D. Webster (BRAPP); test: as above
Text: as §1, §8, §9, §3, §4, §5, §10, §11

[5] = test system: Echinochloa colonum (L.) Link (ECHCO); test: as above
Text: as §1, §8, §9, §3, §4, §5, §10, §11

[6] = test system: Setaria faberi Herrm. (SETFA); test: as above
Text: as §1, §8, §9, §3, §4, §5, §10, §11

[7] = test system: Sesbania exaltata (Raf.) Cory/Rydb. Ex Hill (SEBEX); test: as above
Text: as §1, §8, §9, §3, §4, §5, §10, §11

[8] = test system: Xanthium strumarium L. (XANST); test: as above; settings: 27 DAA
Text: as §1, §8, §9, §3, §4, §5, §10, §11

| SMILES | Visual Weed Control (%) - 33 DAA IPOHE Obs [1] [%] | pest or weed control at 70 g/ha ([2]; 528 h, 22 DAA, 70 g ai/ha) [%] | pest or weed control at 140 g/ha ([2]; 528 h, 22 DAA, 140 g ai/ha) [%] | pest or weed control at 280 g/ha ([2]; 528 h, 22 DAA, 280 g ai/ha) [%] | Visual Weed Control (%) - 33 DAA ECHCG Obs ([3]; Propyzamide 560 g ai/ha alone) [%] | Visual Weed Control (%) - 33 DAA ECHCG Obs ([3]; Propyzamide 1120 g ai/ha alone) [%] | Visual Weed Control (%) - 33 DAA BRAPP Obs ([4]; Propyzamide 280 g ai/ha alone) [%] | Visual Weed Control (%) - 33 DAA BRAPP Obs ([4]; Propyzamide 560 g ai/ha alone) [%] | Visual Weed Control (%) - 33 DAA ECHCO Obs ([5]; Propyzamide 280 g ai/ha alone) [%] | Visual Weed Control (%) - 33 DAA ECHCO Obs ([5]; Propyzamide 560 g ai/ha alone) [%] | Visual Weed Control (%) - 33 DAA ECHCO Obs ([5]; Propyzamide 1120 g ai/ha alone) [%] | Visual Weed Control (%) - 33 DAA SETFA Obs ([6]; Propyzamide 280 g ai/ha alone) [%] | Visual Weed Control (%) - 33 DAA SETFA Obs ([6]; Propyzamide 560 g ai/ha alone) [%] | Visual Weed Control (%) - 33 DAA SETFA Obs ([6]; Propyzamide 1120 g ai/ha alone) [%] | Visual Weed Control (%) - 33 DAA SEBEX Obs ([7]; Propyzamide 280 g ai/ha alone) [%] | Visual Weed Control (%) - 33 DAA SEBEX Obs ([7]; Propyzamide 560 g ai/ha alone) [%] | Visual Weed Control (%) - 33 DAA SEBEX Obs ([7]; Propyzamide 1120 g ai/ha alone) [%] | pest or weed control at 280 g/ha ([2]; 480 h) [%] | Visual Weed Control (%) Obs ([8]; 280 g ai/ha) [%] | Visual Weed Control (%) Obs ([8]; 560 g ai/ha) [%] |
| --- | --- | --- | --- | --- | --- | --- | --- | --- | --- | --- | --- | --- | --- | --- | --- | --- | --- | --- | --- | --- |
| C#CC(C)(C)NC(=O)c1cc(Cl)cc(Cl)c1 [Propyzamide] | 35 | 0 | 0 | 0 | 35 | 53 | 20 | 37 | 0 | 23 | 80 | 0 | 68 | 93 | 20 | 13 | 37 | – | – | – |
| COC(=O)c1c(C(F)F)nc(C(F)(F)F)c(C2=NCCS2)c1CC(C)C [Thiazopyr, methyl 2-(difluoromethyl)-5-(4,5-dihydro-2-thiazolyl)-4-(2-methylpropyl)-6-(trifluoromethyl)-3-pyridinecarboxylate] | – | – | – | – | – | – | – | – | – | – | – | – | – | – | – | – | – | 40 | 15 | 10 |
